# Experimental data: PubChem BioAssay AID2423 (Broad Institute, 2010)
# Inconclusive results are not listed. Calls of active or inactive are those of the source. The rule behind the calls is not given here.
# Tested on: C. albicans CaCi-8 + fluconazole, Alamar Blue growth, 48 h
# Assay: resistant C. albicans growth inhibition with fluconazole, dose response, CaCi-8 strain, Alamar Blue fluorescence (AID 2423)
row,SMILES,EC50
1,CCc1ccc(/C=C/C(=O)c2cc(Br)ccc(=O)c2O)cc1,0.833 µM
2,Cc1c(CCOC(=O)C23CC4(C)CC(C)(CC(C)(C4)C2)C3)sc[n+]1CC(=O)c1ccccc1,> 15 µM (inactive)
3,CC(=O)Oc1ccc2c(=O)c(-c3nc4ccccc4s3)coc2c1,3.52 µM
4,COc1cnc(-c2ccccn2)nc1NC(C)C,> 15 µM (inactive)
5,O=C(c1ccc(Cl)cc1)N1CCN(c2ccnc3cc(Cl)ccc23)CC1,0.863 µM
6,Cc1cccc(C(=O)CC(=O)c2cc(Cl)ccc2O)c1,2.67 µM
7,C[C@@H]1C[C@@H]2O[C@H]2/C=C\C=C\C(=O)Cc2c(Cl)c(O)cc(O)c2C(=O)O1,0.234 µM
8,C/C(=N\O)c1cc(Cl)cc(Cl)c1O,3.66 µM
9,CCNc1nc(N)nc(-c2cc(Cl)ccc2O)n1,1.9 µM
10,CSc1nc(Cl)c(C#N)c(-c2ccc(C)cc2)n1,2.84 µM
11,Cc1cc(O)ccc1NC(=S)NC(=O)c1cncc(Br)c1,0.727 µM
12,Nc1[nH]n2c(=O)cc(-c3ccccc3)nc2c1N=Nc1ccc(S(N)(=O)=O)cc1,3.06 µM
13,CCOc1ccc(-n2c(C)cc(C(=O)CCl)c2C)cc1,5.79 µM
14,CC(C)(C)C(=O)NC(=S)NNC(=O)c1sc2ccccc2c1Cl,0.36 µM
15,CCN(CC)c1ccc(/C=N/Nc2nc3ccccc3[nH]2)cc1,0.87 µM
16,CCN=c1scc(-c2ccc3c(c2)NC(=O)CO3)n1N=C1CCCC1,7.22 µM
17,COCc1nnc(NC(=O)c2ccc(S(=O)(=O)N3CCCc4ccccc43)cc2)o1,10.5 µM
18,CC(=O)Nc1ccc(NC(=O)CSc2ccc3nnc(CCNS(=O)(=O)c4ccc(C)cc4)n3n2)cc1,> 16 µM (inactive)
19,COc1cc(NC(=O)c2ccccc2NS(=O)(=O)c2ccc(Cl)s2)cc(OC)c1,> 16 µM (inactive)
20,CN(C)c1ccc(NC(=O)C2C3C=CC(C3)C2C(=O)O)cc1 (centres undefined),> 16 µM (inactive)
21,CCOC(=O)c1ccc(NC(=O)Cn2ncc(Cl)c(Cl)c2=O)cc1,0.894 µM
22,Cc1ccc(Nc2nc(NCc3ccco3)c3ccccc3n2)cc1,2.44 µM
23,CCCC(=O)NC(c1ccc(C)cc1)c1ccc2cccnc2c1O (centres undefined),0.715 µM
24,C/C(=N\NC(=O)c1nn(C)c(C)c1Br)c1ccc(NC(=O)C2CCCC2)cc1,> 15 µM (inactive)
25,Cc1cccc(NC(=S)N/N=C(\c2ccccc2)C(C)C)c1,3.12 µM
26,O=c1[nH]c(=S)[nH]nc1Cc1ccc(Cl)c(Cl)c1,1.4 µM
27,Cc1ccccc1-n1c(=O)c(C#N)cc2c(=O)n3ccccc3nc21,> 16 µM (inactive)

row,SMILES,EC50
1,CN(C)S(=O)(=O)Oc1cccc(C(=O)Nc2ccc(Cl)c(Cl)c2)c1,0.711 µM
2,COc1ccc(C(c2c(O)ccc3ccccc23)N2CCOCC2)c(OC)c1 (centres undefined),2.85 µM
3,CC(C)(C)c1ccc(OCCCC(=O)NNC(=O)c2ccccc2O)cc1,2.56 µM
4,O=[N+]([O-])c1cc(CN2CCN(c3ccccc3)CC2)c(O)c2ncccc12,0.335 µM
5,CC(C)(C)CC(=O)Nc1nnc(C(F)(F)F)s1,> 16 µM (inactive)
6,CC[n+]1c(/C=C/N(C)c2ccccc2)n(-c2ccccc2)c2ccc(-c3nc4ccccc4s3)cc21,1.2 µM
7,Cc1ccc(C(=O)CC(=O)COc2ccc(Cl)cc2)cc1,2.98 µM
8,Cc1cc(C(=O)Nc2sc3c(c2C#N)CCCC3)no1,0.979 µM
9,COc1cc(/C=C/C(=O)Nc2cccnc2)cc(OC)c1OC,> 16 µM (inactive)
10,COc1ccc(C2Nc3ccccc3C(=O)N2O)cc1OC (centres undefined),> 15 µM (inactive)
11,COc1ccc(C(NC(=O)C(C)C)c2ccc3cccnc3c2O)cc1 (centres undefined),0.802 µM
12,O=[N+]([O-])c1ccc(O)c(Nc2ncnc3ccc(Br)cc23)c1,0.15 µM
13,O=c1c(Cl)c(NCCCO)cnn1-c1nc2ccccc2[nH]1,> 15 µM (inactive)
14,CCCc1ccc(/C=C2\C(=O)c3ccccc3C(O)=C2C(=O)OCC)cc1,> 15 µM (inactive)
15,O=C1CC(c2ccccc2)CC(=NCCO)/C1=C(\O)CCCN1C(=O)c2ccccc2C1=O (centres undefined),> 15 µM (inactive)
16,O=C(CN1CCCc2ccccc21)N/N=C/c1c(O)ccc2ccccc12,1.2 µM
17,N#Cc1ccc(-c2nc3cc(Cl)ccc3c(=O)n2O)cc1,3.57 µM
18,COc1ccc(/C=C/c2cc(-c3ccc(C)cc3)o[n+]2C)cc1,1.65 µM
19,CC(=O)N1CCC(=NNC(=O)c2cc3ccccc3cc2O)CC1,11.9 µM
20,CN1CCN(C(c2ccccn2)c2cc(Cl)c3cccnc3c2O)CC1 (centres undefined),1.17 µM
21,O=C(N/N=C/c1ccc(O)cc1O)c1ccc(CN2C(=O)c3cccc4cccc2c34)cc1,0.709 µM
22,NC(=O)c1ccsc1NC(=O)CCS(=O)(=O)c1ccccc1,1.73 µM
23,CCN1CCN(C(c2cccnc2)c2cc(Cl)c3cccnc3c2O)CC1 (centres undefined),0.978 µM
24,CCCCC(=O)NNC(=S)NC(=O)c1ccc(C)cc1,7.76 µM
25,CCc1cc(C(=O)NC2CCCc3c2cnn3-c2cccc(C)c2C)n(C)n1 (centres undefined),0.232 µM
26,Cc1ccc(O)c(-c2cc(-c3cccc(Br)c3)n[nH]2)c1,6.71 µM
27,Nc1nc(-c2ccccc2)c(N=Nc2ccccc2Cl)s1,6.25 µM
